Earlier results on six molecules are cited in patent US20040106561A1, “Health supplement” (Novogen Research Pty. Ltd., priority 1992, published 2004).

Structures are written as SMILES.

One data set relates to oestrogen receptors. To be noted: animal and in vitro studies.
Take `O=c1c(-c2ccc(O)cc2)coc2cc(O)cc(O)c12` [genistein]: the “oestrogenic/anti-oestrogenic activity and SHBG-stimulating capacity relative to daidzein and formononetin” value is given as “approximately 10 times”.

The same data set, now with this note: in vitro and in vivo studies; descending order genistein, biochanin A, equol, daidzein, formononetin.
Consider `CC(C(=O)c1ccc(O)cc1O)c1ccc(O)cc1` (stereo not shown) [O-desmethylangolensin], for which the oestrogenic activity entry is recorded as “only very weakly oestrogenic”.

For the molecule `COc1ccc(-c2coc3cc(O)cc(O)c3c2=O)cc1` [biochanin A], the oestrogenic activity entry is “oestrogenic activity”.

Turning to `O=c1c(-c2ccc(O)cc2)coc2cc(O)ccc12` [daidzein], the oestrogenic activity entry is given as “oestrogenic activity”.

In the case of `Oc1ccc([C@H]2COc3cc(O)ccc3C2)cc1` [equol], the oestrogenic activity result is “oestrogenic activity”.

In the case of `O=c1c(-c2ccc(O)cc2)coc2cc(O)cc(O)c12` [genistein], the oestrogenic activity result is on record as “oestrogenic activity”.

`COc1cc2c(=O)c(-c3ccc(O)cc3)coc2cc1O` [glycitein]: the oestrogenic activity result is recorded as “non-oestrogenic”.
